Results: US9090624B2, “Aromatic bycyclic derivatives as CXCR4 receptor modulators” (Allergan, Inc., priority 2011, dated 2015)

Molecular target: T1, human CXCR4 receptor (Homo sapiens, UniProt P61073)
T1 construct: expressed in transfected cells
Assay: Measurement of intracellular Ca+2 responses (FLIPR), antagonism of the SDF-1α response
Assay type: cell-based
Details: HEK-Gqi5 cells stably expressing human CXCR4; for IC50: antagonism of SDF-1α at 1.9 nM (EC65), Fluo-4 calcium, FLIPR; for inhibition: percent antagonism of SDF-1α at 1.9 nM (EC65), test drug 2.44 nM to 40,000 nM
Protocol: Measurement of Intracellular Ca^+2 Responses for CXCR4 Compounds
HEK-Gqi5 cells stably expressing the human CXCR4 receptor were utilized for these studies. The growth media for the CXCR4 receptor expressing cell line was DMEM high glucose medium supplemented with 10% fetal bovine serum (FBS), 1% antibiotic-antimycotic, 50 ug/ml hygromycin B, and 400 μg/ml geneticin. Ten thousand cells per well were plated into 384-well poly-D-lysine coated plates one day prior to use. On the day of the experiment, the cells were washed twice with Hank's Balanced Salt Solution supplemented with 20 mM hepes (HBSS/hepes buffer). The cells were then dye loaded with 2 uM Fluo-4 diluted in the HBSS/Hepes buffer and incubated at 37° C. for 40 minutes. Extracellular dye was removed by washing the cell plates four times prior to placing the plates in the FLIPR (Fluorometric Imaging Plate Reader, Molecular Devices). Ligands were diluted in HBSS/Hepes buffer and prepared in 384-well microplates. The positive control, stromal-cell derived factor-1 (SDF-1α), was diluted in HBSS/Hepes buffer with 4 mg/ml fatty acid free bovine serum albumin. Two drug additions were made by the FLIPR. The first drug addition was the test drug in concentrations ranging from 2.44 nM to 40,000 nM. After this addition, fluorescent measurements were taken. Any calcium release in response to this drug addition represents agonist activity of the compounds. The second drug addition was SDF-1α at a final concentration of 1.9 nM (EC65). Fluorescence measurements were also taken after this second drug addition and were used to determine the ability of the test compounds to antagonize the SDF-1α response. Results were expressed as EC50 and efficacy values, as well as IC50 and percent antagonism values. As controls, SDF-1α (CXCR4 agonist) and AMD3100 (CXCR4 antagonist) dose-response curves were also determined in each study.

T1 sequence (P61073 whole entry): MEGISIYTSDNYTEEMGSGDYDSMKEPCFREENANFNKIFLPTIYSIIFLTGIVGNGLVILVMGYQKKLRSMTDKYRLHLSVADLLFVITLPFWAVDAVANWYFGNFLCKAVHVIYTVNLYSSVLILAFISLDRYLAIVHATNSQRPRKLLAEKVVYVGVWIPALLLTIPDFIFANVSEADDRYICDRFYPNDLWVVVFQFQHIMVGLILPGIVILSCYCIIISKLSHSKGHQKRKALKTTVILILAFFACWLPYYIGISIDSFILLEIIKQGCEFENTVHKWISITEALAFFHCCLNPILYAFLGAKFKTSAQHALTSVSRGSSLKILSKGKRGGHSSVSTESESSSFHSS

SMILES | IC50 | inhibition
CN(C)CCNc1nc(NC2CCN(Cc3c(OCCN(C)C)cccc3N(C)C)CC2)c2sccc2n1 [Compound 2] | 110 nM | 95%
COc1cccc(N(C)C)c1CN1CCC(Nc2nc(NCCN(C)C)nc3c2CCC3)CC1 [Compound 1, N^2-[2-(Dimethylamino)ethyl]-N^4-{1-[2-(dimethylamino)-6-methoxybenzyl]piperidin-4-yl}-6,7-dihydro-5H-cyclopenta[d]pyrimidine-2,4-diamine] | 2920 nM | 93%
